Assay results: patent US5830869A, “Thiadiazole amide MMP inhibitors” (priority 1997, dated 1998)

Target: Stromelysin (Homo sapiens, UniProt P08254)
Assay: Stromelysin inhibition, in vitro particle concentration fluorescence assay (TABLE 1, MMP Inhibition Constants)
Assay type: biochemical
Details: fluorescein/biotin substrate, MMP buffer pH 7.5, room temperature, 15 min preincubation with enzyme, 1-3 h with substrate
Experimental: Inhibitory activity is evaluated in one or more of the MMP enzymes (stromelysin, gelatinase, and collagenase) in vitro using particle concentration fluorescence assay. An inhibitor binds to MMP enzymes which prevents the degradation of a substrate by stromelysin, gelatinase, or collagenase. The substrate has attached to it a fluorescein and a biotin moiety. The intact substrate then binds to an avidin-coated particle via the biotin moiety. Once the particle is washed and dried, a fluorescent signal is generated since the fluorescent group is attached to the particle. Without an inhibitor present, the substrate is degraded by MMP enzymes and the fluorescein group is removed, therefore, no fluorescent signal can be detected. Testing compounds are dissolved in DMSO to the desired concentration, then the solutions are diluted to 1:5 with MMP buffer (50 mM Tris-HCl, pH 7.5; 150 mM NaCl; 0.02% NaN3). Serial two-fold dilutions of each compound are prepared. A concentrated, activated enzyme solution is transferred into each plate of the testing compounds, and the mixture is incubated at room temperature for 15 minutes. Thawed MMP substrate is then added into all plates, and the plates are incubated in the dark for 1-3 hours at room temperature. At this point, the substrate mixture is mixed with 0.1% avidin-coated polystyrene particles. After 15 minutes, the fluorescence values are measured following filtration and washing of the beads. Ki values are then calculated.

Sequence of Stromelysin (P08254 100-477): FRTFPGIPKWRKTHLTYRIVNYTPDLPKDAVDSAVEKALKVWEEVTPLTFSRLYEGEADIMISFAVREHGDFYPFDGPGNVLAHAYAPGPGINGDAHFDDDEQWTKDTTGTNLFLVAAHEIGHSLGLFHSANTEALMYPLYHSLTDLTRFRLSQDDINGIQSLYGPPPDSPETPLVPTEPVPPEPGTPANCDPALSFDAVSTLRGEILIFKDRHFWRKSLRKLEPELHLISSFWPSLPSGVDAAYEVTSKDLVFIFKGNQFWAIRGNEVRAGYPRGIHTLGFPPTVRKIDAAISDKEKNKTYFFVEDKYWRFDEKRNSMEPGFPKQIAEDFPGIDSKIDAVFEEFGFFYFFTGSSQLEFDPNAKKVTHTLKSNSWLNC

Row | Ki [nM] | SMILES
1 | 2220 | CC(C)C[C@H](NC(=O)OCc1ccccc1)C(=O)Nc1n[nH]c(=S)s1 [Example 35, (S)-[1-[[(4,5-dihydro-5-thioxo-1,3,4-thiadiazol-2-yl)amino]carbonyl]-3-methylbutyl]carbamic acid phenylmethyl ester]
2 | 4050 | CCOC(=O)C(Cc1ccccc1)C(=O)Nc1n[nH]c(=S)s1 (stereo not drawn) [Example 57, ethyl α-[[(4,5-dihydro-5-thioxo-1,3,4-thiadiazol-2yl)amino]carbonyl]benzenepropanoate]
3 | 910 | CC(C)(C)[C@H](NC(=O)CCc1c(F)c(F)c(F)c(F)c1F)C(=O)Nc1n[nH]c(=S)s1 [Example 27, (S)-N-[1-[[(4,5-dihydro-5-thioxo-1,3,4-thiadiazol-2-yl)amino]carbonyl]-2,2-dimethylpropyl]-2,3,4,5,6-pentafluorobenzenepropanamide]
4 | 1160 | CC(C)[C@H](NC(=O)OCc1ccccc1)C(=O)Nc1n[nH]c(=S)s1 [Example 36, (S)-[1-[[(4,5-dihydro-5-thioxo-1,3,4-thiadiazol-2-yl)amino]carbonyl]-2-methylpropyl]carbamic acid phenylmethyl ester]
5 | 970 | O=C(CCc1ccccc1)N[C@@H](Cc1c(F)c(F)c(F)c(F)c1F)C(=O)Nc1n[nH]c(=S)s1 [Example 30, (S)-α-N-(4,5-dihydro-5-thioxo-1,3,4-thiadiazol-2-yl)-2,3,4,5,6-pentafluoro-[(1-oxo-3-phenylpropyl)amino]benzenepropanamide]
6 | 2310 | CCC[C@H](NC(=O)OCc1ccccc1)C(=O)Nc1n[nH]c(=S)s1 [Example 7, (S)-[1-[[(4,5-dihydro-5-thioxo-1,3,4-thiadiazol-2-yl)amino]carbonyl]butyl]carbamic acid phenylmethyl ester]
7 | 1240 | CC[C@H](C)[C@H](NC(=O)OCc1ccccc1)C(=O)Nc1n[nH]c(=S)s1 [Example 3, [S-(R*,R*)]-[1-[[(4,5-dihydro-5-thioxo-1,3,4-thiadiazol-2-yl)amino]carbonyl]-2-methylbutyl[carbamic acid phenylmethyl ester]
8 | 1770 | CC(=O)NCSC(C)(C)C(NC(=O)OCc1ccccc1)C(=O)Nc1n[nH]c(=S)s1 (stereo not shown) [Example 17, (2-(((acetylamino)methyl)thio)-1-(((4,5-dihydro-5--thioxo-1,3,4-thiadiazol-2-yl)amino)carbonyl)-2-methylpropyl)carbamic acid phenylmethyl ester]
9 | 6200 | CC(C)(C)OC(=O)NC(C(=O)Nc1n[nH]c(=S)s1)C(C)(C)CCc1ccccc1 (stereo not shown) [Example 19, (1-(((4,5-dihydro-5-thioxo-1,3,4-thiadiazol-2-yl)amino)carbonyl)-2,2-dimethyl-4-phenylbutyl)carbamic acid 1,1-dimethylethyl ester]
10 | 1200 | CC(C)C[C@@H](CC(=O)Nc1n[nH]c(=S)s1)NC(=O)OCc1ccccc1 [Example 54, (S)-[1-[2-[[4,5-dihydro-5-thioxo-1,3,4-thiadiazol-2-yl)amino]-2-oxoethyl]-3-methylbutyl]carbamic acid phenylmethyl ester]
11 | 240 | CC(C)(C)[C@H](NC(=O)CCc1ccccc1)C(=O)Nc1n[nH]c(=S)s1 [Example 26, (S)-N-[1-[[(4,5-dihydro-5-thioxo-1,3,4-thiadiazol-2-yl)amino]carbonyl]-2,2-dimethylpropyl]benzenpropanamide]
12 | 1800 | CC(=O)NC(C(=O)Nc1n[nH]c(=S)s1)c1ccccc1 (stereo not drawn) [Example 13, α-(acetylamino)-N-(4,5-dihydro-5-thioxo-1,3,4-thiadiazol-2-yl)-benzeneacetamide]
13 | 120 | CC(C)(C)[C@H](NC(=O)OCC1c2ccccc2-c2ccccc21)C(=O)Nc1n[nH]c(=S)s1 [Example 37, (S)-[1-[[(4,5-dihydro-5-thioxo-1,3,4-thiadiazol-2-yl)amino]carbonyl]-2,2-dimethylpropyl]carbamic acid 9H-fluoren-9-yl-methyl ester]
14 | 640 | O=C(CCc1ccccc1)NC(C(=O)Nc1n[nH]c(=S)s1)c1ccccc1 (stereo not shown) [Example 14, N-[2-[(4,5-dihydro-5-thioxo-1,3,4-thiadiazol-2-yl)amino]-2-oxo-1-phenylethyl]benzenepropanamide]
15 | 2720 | CC(C)(C)OC(=O)NC(C(=O)Nc1n[nH]c(=S)s1)C(C)(C)CCCc1ccccc1 (stereo not shown) [Example 21, (1-(((4,5-dihydro-5-thioxo-1,3,4-thiadiazol-2-yl)amino)carbonyl)-2,2-dimethyl-5-phenylpentyl)carbamic acid 1,1-dimethylethyl ester]
16 | 720 | CC(C)(C)OC(=O)NC(CC(=O)Nc1n[nH]c(=S)s1)c1ccccc1 (stereo not shown) [Example 45, [3-[(4,5-dihydro-5-thioxo-1,3,4-thiadiazol-2-yl)amino]-3-oxo-1-phenylpropyl]carbamic acid 1,1-dimethylethyl ester]

The remaining lines, values behind:

Row | SMILES | Ki [nM]
17 | COCC(=O)NC(CC(=O)Nc1n[nH]c(=S)s1)c1ccccc1 (stereo not drawn) [Example 47, N-(4,5-dihydro-5-thioxo-1,3,4-thiadiazol-2-yl)-β-[(methoxyacetyl)amino]benzenepropanamide] | 1360
18 | O=C(N[C@H]1CCCC[C@H]1C(=O)Nc1n[nH]c(=S)s1)OCC1c2ccccc2-c2ccccc21 [Example 53, (1S-cis-)-[2-[[(4,5-dihydro-5-thioxo-1,3,4-thiadiazol-2-yl)amino]carbonyl]cyclohexyl]carbamic acid 9H-fluoren-9-yl-methyl ester] | 15000
19 | O=C(N[C@@H](CCc1ccccc1)C(=O)Nc1n[nH]c(=S)s1)OCc1ccccc1 [Example 2, (S)-[1-[[(4,5-dihydro-5-thioxo-1,3,4-thiadiazol-2-yl)amino]carbonyl]-3-phenylpropyl]carbamic acid phenylmethyl ester] | 13900
20 | O=C(CC(NC(=O)COc1ccccc1)c1ccccc1)Nc1n[nH]c(=S)s1 (stereo not drawn) [Example 48, N-(4,5-dihydro-5-thioxo-1,3,4-thiadiazol-2-yl)-β-[(phenoxyacetyl)amino]benzenepropanamide] | 313
21 | O=C(Nc1n[nH]c(=S)s1)[C@@H]1CC[C@H](C(=O)N(Cc2ccccc2)OCc2ccccc2)C1 (relative stereo) [Example 60, cis-N'-(4,5-dihydro-5-thioxo-1,3,4-thiadiazol-2-yl)-N-(phenylmethoxy)-N-(phenylmethyl)-1,3-cyclopentane dicarboxamide] | 10300
22 | O=C(C[C@@H](NC(=O)OCc1ccccc1)c1ccccc1)Nc1n[nH]c(=S)s1 [Example 52, (R)-[3-[(4,5-dihydro-5-thioxo-1,3,4-thiadiazol-2-yl)amino]-3-oxo-1-phenylpropyl]carbamic acid phenylmethyl ester] | 260
23 | CC(C)(C)OC(=O)N1CCC[C@H]1C(=O)N[C@H](C(=O)Nc1n[nH]c(=S)s1)C(C)(C)C [Example 29, 1-[(1,1-dimethylethoxy)carbonyl]-L-prolyl-N-(4,5-dihydro-5-thioxo-1,3,4-thiadiazol-2-yl)-3-methyl-L-valinamide] | 1470
24 | C=CC[C@H](C(=O)Nc1n[nH]c(=S)s1)[C@@H](CC(C)C)NC(=O)OCc1ccccc1 (relative stereo) [Example 55, (R*,S*)-[2-[[(4,5-dihydro-5-thioxo-1,3,4-thiadiazol-2-yl)amino]carbonyl]-1-(2-methylpropyl)-4-pentenyl]carbamic acid phenylmethyl ester] | 1910
25 | O=C(NC(C(=O)Nc1n[nH]c(=S)s1)c1ccccc1)OCc1ccccc1 (stereo not shown) [Example 1, [2-[(4,5-dihydro-5-thioxo-1,3,4-thiadiazol-2-yl)amino]-2-oxo-1-phenylethyl]carbamic acid, phenylmethyl ester] | 1210
26 | C=CC(C)(C)C(NC(=O)OC(C)(C)C)C(=O)Nc1n[nH]c(=S)s1 (stereo not shown) [Example 22, (1-(((4,5-dihydro-5-thioxo-1,3,4-thiadiazol-2-yl)amino)carbonyl)-2,2-dimethyl-3-butenyl)carbamic acid 1,1-dimethylethyl ester] | 3510
27 | O=C(CC(NC(=O)Cc1ccccc1)c1ccccc1)Nc1n[nH]c(=S)s1 (stereo not drawn) [Example 43, N-(4,5-dihydro-5-thioxo-1,3,4-thiadiazol-2-yl)-β-[(phenylacetyl)amino]benzenepropanamide] | 655
28 | CCOC(=O)C(C(=O)Nc1n[nH]c(=S)s1)C(C)(C)C (stereo not drawn) [Example 58, ethyl α-[[(4,5-dihydro-5-thioxo-1,3,4-thiadiazol-2-yl)amino]carbonyl]-3,3-dimethylbutanoate] | 5000
29 | CC(C)C[C@@H](NC(=O)OCc1ccccc1)[C@H](Cc1ccccc1)C(=O)Nc1n[nH]c(=S)s1 (relative stereo) [Example 56, (R*,S*)-[1-[2-[(4,5-dihydro-5-thioxo-1,3,4-thiadiazol-2-yl)amino]-oxo-1(phenylmethyl)ethyl]-3-methylbutyl]carbamic acid phenylmethyl ester] | 1700
30 | O=C(N[C@@H](Cc1c[nH]c2ccccc12)C(=O)Nc1n[nH]c(=S)s1)OCc1ccccc1 [Example 33, (S)-[2-[(4,5-dihydro-5-thioxo-1,3,4-thiadiazol-2-yl)amino]-1-(1H-indol-3-yl-methyl)-2-oxoethyl]-carbamic acid, phenylmethyl ester] | 10200
31 | CCC(C)(C)C(NC(=O)OC(C)(C)C)C(=O)Nc1n[nH]c(=S)s1 (stereo not shown) [Example 23, (1-(((4,5-dihydro-5-thioxo-1,3,4-thiadiazol-2-yl)amino)carbonyl)-2,2-dimethylbutyl)carbamic acid 1,1-dimethylethyl ester] | 2140
